This note sets out measurements from US20250382303A1, “NOVEL COMPOUND AS NADPH OXIDASE 2 INHIBITOR AND PHARMACEUTICAL COMPOSITION CONTAINING SAME” (DONGGUK UNIVERSITY INDUSTRY-ACADEMIC COOPERATION FOUNDATION, priority 2022, published 2025).

Where only a bound is given, the exact number is not on record here.

One experiment addresses T1, NOX2 (Homo sapiens, UniProt P04839).
T1 construct: Used for the NOX2 activity assay was human leukemia 60 cells (HL-60), which are widely, universally used to assess NOX2 activity; endogenous in cells
T1 sequence (P04839 2-570 limits assumed): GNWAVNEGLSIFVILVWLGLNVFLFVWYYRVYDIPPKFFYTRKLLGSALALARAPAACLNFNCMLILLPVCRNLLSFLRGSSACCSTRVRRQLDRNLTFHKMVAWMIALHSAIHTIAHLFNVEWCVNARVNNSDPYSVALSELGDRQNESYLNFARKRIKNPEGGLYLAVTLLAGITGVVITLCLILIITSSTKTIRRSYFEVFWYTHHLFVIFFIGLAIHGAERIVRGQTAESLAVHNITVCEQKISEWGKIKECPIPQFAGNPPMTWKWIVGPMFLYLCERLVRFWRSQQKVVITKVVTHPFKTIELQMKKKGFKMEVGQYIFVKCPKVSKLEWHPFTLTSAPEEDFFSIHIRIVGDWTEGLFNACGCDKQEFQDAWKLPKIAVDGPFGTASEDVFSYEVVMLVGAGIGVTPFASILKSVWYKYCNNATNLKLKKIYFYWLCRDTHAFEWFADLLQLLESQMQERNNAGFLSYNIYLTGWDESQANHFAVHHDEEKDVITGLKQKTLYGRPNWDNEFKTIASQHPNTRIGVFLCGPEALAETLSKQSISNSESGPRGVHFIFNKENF
T1 sequence (P13498 2-195 partner limits assumed): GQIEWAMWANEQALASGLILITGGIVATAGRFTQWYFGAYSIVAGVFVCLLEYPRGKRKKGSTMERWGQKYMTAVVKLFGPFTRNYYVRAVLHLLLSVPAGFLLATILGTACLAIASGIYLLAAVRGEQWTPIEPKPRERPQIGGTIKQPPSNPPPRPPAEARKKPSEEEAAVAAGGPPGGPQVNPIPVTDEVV
The experiment is described as follows: NOX2 activity assay: PMA-induced ROS in ATRA-differentiated HL-60 cells (WST-1 or Amplex Red/HRP probe). The format is cell-based. To be noted: for IC50: WST-1 probe, differentiated HL-60, 200 ng/mL PMA, read-out: Inhibitory ability (NOX2). In short, it runs like this:
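HL-60 cells differentiated with ATRA for 4 days, seeded at 3×10^4 cells/well and preincubated with compound for 60 min at 37 °C. ROS from 200 ng/mL PMA stimulation was followed for 60 min at 37 °C by WST-1 absorbance (450 nm) or Amplex Red/HRP fluorescence (Ex 560/Em 585 nm); DMSO vehicle control.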
A general note: Tetrazolium dyes change colour on reduction, which living cells bring about.

Experiment [1] is described as follows: Non-specific free radical scavenging: superoxide produced by xanthine/xanthine oxidase, measured by WST-1. Format: biochemical. To be noted: compound at 10 or 30 μM. Here is the method:
The scavenging activity that the effective compound in 10 or 30 μM scavenges the superoxide produced by xanthine/xanthine oxidase was measured by WST-1, the results of which are shown in Table 2.

As to `CC12CC(NC(=O)N1c1cccc(C(=O)N3CCc4ccccc4C3)c1)c1ccccc1O2` (racemic) [Compound 8a, 2-Methyl-3-(3-(1,2,3,4-tetrahydroisoquinoline-2-carbonyl)phenyl)-5,6-dihydro-2H-2,6-methanobenzo[g][1,3,5]oxadiazocin-4(3H)-one], the IC50 on NOX2 lay in the range of 1 to 10 µM. For the same molecule, in experiment [1], the “scavenging of superoxide produced by xanthine/xanthine oxidase” value was “did not exhibit significant peroxide scavenging ability”. Take `CC12CC(NC(=O)N1c1cccc(C(=O)N3CCc4cccc(C(F)(F)F)c4C3)c1)c1cc(-c3ccoc3)ccc1O2` (centres unmarked) [Compound 28g, 8-(Furan-3-yl)-2-methyl-3-(3-(8-(trifluoromethyl)-1,2,3,4-tetrahydroisoquinoline-2-carbonyl)phenyl)-5,6-dihydro-2H-2,6-methanobenzo[g][1,3,5]oxadiazocin-4(3H)-one]: on NOX2, the IC50 was > 10 µM. Still for that read-out and setting: for `CC12CC(NC(=O)N1c1cccc(C(=O)N3CCc4cc(C(F)(F)F)ccc4C3)c1)c1cc(-c3ccoc3)ccc1O2` (centres unmarked) [Compound 28h, 8-(Furan-3-yl)-2-methyl-3-(3-(6-(trifluoromethyl)-1,2,3,4-tetrahydroisoquinoline-2-carbonyl)phenyl)-5,6-dihydro-2H-2,6-methanobenzo[g][1,3,5]oxadiazocin-4(3H)-one] the value was > 10 µM; for `CC1(C)CN(C(=O)c2cccc(N3C(=O)NC4CC3(C)Oc3ccc(-c5ccoc5)cc34)c2)Cc2ccccc21` (centres unmarked) [Compound 28i, 3-(3-(4,4-Dimethyl-1,2,3,4-tetrahydroisoquinoline-2-carbonyl)phenyl)-8-(furan-3-yl)-2-methyl-5,6-dihydro-2H-2,6-methanobenzo[g][1,3,5]oxadiazocin-4(3H)-one], 1 to 10 µM. `CC12CC(NC(=O)N1c1cccc(C(=O)N3CCc4ccccc4C3(C)C)c1)c1cc(-c3ccoc3)ccc1O2` (centres unmarked) [Compound 28j, 3-(3-(1,1-Dimethyl-1,2,3,4-tetrahydroisoquinoline-2-carbonyl)phenyl)-8-(furan-3-yl)-2-methyl-5,6-dihydro-2H-2,6-methanobenzo[g][1,3,5]oxadiazocin-4(3H)-one]: on NOX2 (WST-1, comment on Table 1), the “NOX2 inhibitory ability, verbal rating” value was “excellent inhibitory ability”. Moreover, the IC50 at NOX2 was > 10 µM.

`CC12CC(NC(=O)N1c1cccc(C(=O)N3CCc4ncccc4C3)c1)c1cc(-c3ccoc3)ccc1O2` (centres unmarked) [Compound 28k, 8-(Furan-3-yl)-2-methyl-3-(3-(5,6,7,8-tetrahydro-1,6-naphthyridine-6-carbonyl)phenyl)-5,6-dihydro-2H-2,6-methanobenzo[g][1,3,5]oxadiazocin-4(3H)-one]: on NOX2, the IC50 was > 10 µM.
